Measured values: the NIST ThermoML archive (doi:10.1021/je400178k)
Numbers after ± are expanded uncertainties.

Assay: molar heat capacity at constant pressure
Conditions: 101 kPa, Liquid, Small sample (50 mg) DSC

SMILES | molar heat capacity at constant pressure (298.15 K) | molar heat capacity at constant pressure (303.15 K) | molar heat capacity at constant pressure (308.15 K) | molar heat capacity at constant pressure (313.15 K) | molar heat capacity at constant pressure (318.15 K) | molar heat capacity at constant pressure (323.15 K) | molar heat capacity at constant pressure (328.15 K) | molar heat capacity at constant pressure (333.15 K) | molar heat capacity at constant pressure (338.15 K) | molar heat capacity at constant pressure (343.15 K) | molar heat capacity at constant pressure (348.15 K) | molar heat capacity at constant pressure (353.15 K)
NCCCN1CCOCC1 [N-(3-aminopropyl)morpholine] | 296.2 ± 4.6 J/K/mol | 298.2 ± 4.7 J/K/mol | 299.6 ± 4.7 J/K/mol | 301.2 ± 4.7 J/K/mol | 302.8 ± 4.7 J/K/mol | 304.5 ± 4.7 J/K/mol | 306.1 ± 4.8 J/K/mol | 307.9 ± 4.8 J/K/mol | 309.6 ± 4.8 J/K/mol | 311.3 ± 4.8 J/K/mol | 312.7 ± 4.9 J/K/mol | 313.4 ± 4.9 J/K/mol
CN1CCN(C)CC1 [1,4-dimethylpiperazine] | 216.5 ± 3.7 J/K/mol | 221.7 ± 3.7 J/K/mol | 222.1 ± 3.7 J/K/mol | 223.4 ± 3.7 J/K/mol | 224.6 ± 3.8 J/K/mol | 225.3 ± 3.8 J/K/mol | 225.7 ± 3.8 J/K/mol | 227.5 ± 3.8 J/K/mol | 228.5 ± 3.8 J/K/mol | 229.6 ± 3.8 J/K/mol | 231.7 ± 3.8 J/K/mol | 235.9 ± 3.9 J/K/mol
OCCN1CCOCC1 [4-morpholineethanol] | 263.9 ± 4.2 J/K/mol | 265.3 ± 4.3 J/K/mol | 267.1 ± 4.3 J/K/mol | 269.2 ± 4.3 J/K/mol | 270.8 ± 4.3 J/K/mol | 272.6 ± 4.3 J/K/mol | 274.3 ± 4.4 J/K/mol | 276.2 ± 4.4 J/K/mol | 278.7 ± 4.4 J/K/mol | 281 ± 4.4 J/K/mol | 283.2 ± 4.5 J/K/mol | 284.9 ± 4.5 J/K/mol

Second part, the compound after the results:

molar heat capacity at constant pressure (298.15 K) | molar heat capacity at constant pressure (303.15 K) | molar heat capacity at constant pressure (308.15 K) | molar heat capacity at constant pressure (313.15 K) | molar heat capacity at constant pressure (318.15 K) | molar heat capacity at constant pressure (323.15 K) | molar heat capacity at constant pressure (328.15 K) | molar heat capacity at constant pressure (333.15 K) | molar heat capacity at constant pressure (338.15 K) | molar heat capacity at constant pressure (343.15 K) | molar heat capacity at constant pressure (348.15 K) | molar heat capacity at constant pressure (353.15 K) | SMILES
213.9 ± 3.6 J/K/mol | 214.4 ± 3.6 J/K/mol | 215 ± 3.6 J/K/mol | 215.7 ± 3.6 J/K/mol | 216.4 ± 3.7 J/K/mol | 216.9 ± 3.7 J/K/mol | 217.3 ± 3.7 J/K/mol | 217.2 ± 3.7 J/K/mol | 215.5 ± 3.6 J/K/mol | 216.2 ± 3.7 J/K/mol | 217.6 ± 3.7 J/K/mol | 218 ± 3.7 J/K/mol | CN1CCNCC1 [N-methylpiperazine]
285 ± 4.5 J/K/mol | 289.9 ± 4.6 J/K/mol | 292.9 ± 4.6 J/K/mol | 296 ± 4.6 J/K/mol | 298.9 ± 4.7 J/K/mol | 301.7 ± 4.7 J/K/mol | 305 ± 4.8 J/K/mol | 308.1 ± 4.8 J/K/mol | 311 ± 4.8 J/K/mol | 313.9 ± 4.9 J/K/mol | 316.5 ± 4.9 J/K/mol | 319 ± 4.9 J/K/mol | OCCN1CCNCC1 [N-(2-hydroxyethyl)piperazine]
